Assay results published in patent US6534524B1, “Indazole compounds and pharmaceutical compositions for inhibiting protein kinases, and methods for their use” (Agouron Pharmaceuticals, Inc., priority 1999, dated 2003).
Read-outs that look alike come from different tables or passages of the source.

What was measured:
[1] = Determination of inhibitor concentration in mouse plasma after intraperitoneal and oral dosing; assay type: in vivo
Outline: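 Plasma levels quantified by HPLC or LC-MS using a standard curve prepared in mouse plasma, following ethyl acetate extraction with internal standard and sodium hydroxide. Sampling at 0.5, 1, 4 h (ocular bleed) and 7 h (cardiac puncture) after oral or intraperitoneal dosing.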

[2] = Human liver microsome (HLM) assay; assay type: in vitro ADME; conditions: human liver microsomes, 5 μM test compound
Experimental: Human Liver Microsome (HLM) Assay Compound metabolism in human liver microsomes was measured by LC-MS analytical assay procedures as follows. […] (3 tubes per test compound-triplicate). […] The samples were then transferred to separate polypropylene microcentrifuge tubes and centrifuged at 14000 g for 10 min. (Fisher Micro […] M0017580). For each replicate (#1-3) at each timepoint (0 and 2 h), an aliquot sample of each test compound was combined into a single HPLC vial insert (6 total samples) for LC-MS analysis, which is described below.

[3] = IP, 25 mg/kg, vehicle PEG400:H2O pH 2.3 60:40
[4] = PO, 50 mg/kg, vehicle PEG400:H2O pH 2.3 60:40
[5] = IP, 25 mg/kg, vehicle PEG400:H2O pH 2.3 30:70
[6] = PO, 50 mg/kg, vehicle PEG400:H2O pH 2.3 30:70
[7] = female, IP, 25 mg/kg, vehicle PEG400:H2O pH 2.3 30:70, read-out: Cmin (7 hr conc.)
[8] = female, PO, 50 mg/kg, vehicle PEG400:H2O pH 2.3 30:70, read-out: Cmin (7 hr conc.)
[9] = PO, 25 mg/kg, vehicle PEG400:H2O pH 2.3 30:70

Row | % remain (HLM, 2 h) [2] [%] | AUClast [1, 5] [ng·h/mL] | Cmax [1, 5] [ng/mL] | AUClast [1, 6] [ng·h/mL] | plasma half-life (T1/2) [1, 5] [h] | plasma half-life (T1/2) [1, 6] [h] | concentration at 7 h [1, 7] [ng/mL] | concentration at 7 h [1, 8] [ng/mL] | Compound | other results
1 | 33 | 2032 | 2138 | 2445 | 1.4 | 0.9 | 24 | 10 | CCCNC(=O)c1ccccc1Sc1ccc2c(/C=C/c3ccccn3)n[nH]c2c1 [Example 35(a), 6-[2-(n-Propylcarbamoyl)phenylsulfanyl]-3-E-[2-(pyridin-2-yl)ethenyl]-1H-indazole] | Cmax [1, 6]: 1780 ng/mL
2 | 15 | – | – | – | – | – | – | – | COc1cccc(CNC(=O)c2ccccc2Sc2ccc3c(/C=C/c4ccccn4)n[nH]c3c2)c1 [Example 35(aa)] | AUClast [1, 9]: 4036 ng·h/mL; plasma half-life (T1/2) [1, 9]: 2.1 h; concentration at 7 h ([1]; female, PO, 25 mg/kg, vehicle PEG400:H2O pH 2.3 30:70, read-out: Cmin (7 hr conc.)): 106 ng/mL
3 | 17 | 9408 | 1976 | 4744 | 3.2 | 4.9 | 465 | 321 | O=C(NC1CCC1)c1ccccc1Sc1ccc2c(/C=C/c3ccccn3)n[nH]c2c1 [Example 35(c), 6-[2-(Cyclobutylcarbamoyl)phenylsulfanyl]-3-E-[2-(pyridin-2-yl)ethenyl]-1H-indazole] | –
4 | 34 | 2409 | – | 1503 | 1.8 | 0.9 | 65 | 6 | Cn1cccc1C(=O)NNC(=O)c1ccccc1Sc1ccc2c(/C=C/c3ccccn3)n[nH]c2c1 [Example 35(e), 6-[2-((1-Methylpyrrol-2-ylhydrazido)carbonyl)phenylsulfanyl]-3-E-[2-(pyridin-2-yl)ethenyl]-1H-indazole] | –
5 | 21 | – | – | – | – | – | – | – | CCONC(=O)c1cccc(F)c1Sc1ccc2c(/C=C/c3ccccn3)n[nH]c2c1 [Example 37(a), 6-[6-Fluoro-2-(ethoxycarbamoyl)phenylsulfanyl]-3-E-[2-(pyridin-2-yl)ethenyl]-1H-indazole] | –

Row | Compound | % remain (HLM, 2 h) [2] [%] | AUClast [1, 5] [ng·h/mL] | Cmax [1, 5] [ng/mL] | AUClast [1, 6] [ng·h/mL] | plasma half-life (T1/2) [1, 5] [h] | plasma half-life (T1/2) [1, 6] [h] | concentration at 7 h [1, 7] [ng/mL] | concentration at 7 h [1, 8] [ng/mL] | other results
6 | O=C(c1cccc(NC(=O)c2ccccn2)c1)c1ccc2c(/C=C/c3ccccc3)n[nH]c2c1 [Example 19(k), 6-[3-(Pyridin-2-ylcarboxamido)benzoyl]-3-E-styryl-1H-indazole] | 58 | – | – | – | – | – | – | – | AUClast [1, 3]: 428 ng·h/mL; Cmax [1, 3]: 149 ng/mL; plasma half-life (T1/2) [1, 3]: 2.2 h; AUClast [1, 4]: 19 ng·h/mL; Cmax [1, 4]: 8 ng/mL; plasma half-life (T1/2) [1, 4]: 2.2 h; concentration at 7 h ([1]; female, IP, 25 mg/kg, vehicle PEG400:H2O pH 2.3 60:40, read-out: Cmin (7 hr conc.)): 15 ng/mL; concentration at 7 h ([1]; female, PO, 50 mg/kg, vehicle PEG400:H2O pH 2.3 60:40, read-out: Cmin (7 hr conc.)): 4 ng/mL
7 | CNC(=O)c1ccccc1Sc1ccc2c(/C=C/c3ccccn3)n[nH]c2c1 [Example 33(a), 6-[2-(methylcarbamoyl)phenylsulfanyl]-3-E-[2-(pyridin-2-yl)ethenyl]indazole] | 29 | 13813 | 13794 | 19067 | – | – | – | – | Cmax [1, 6]: 23562 ng/mL; Cmax ([1]; female, PO, 25 mg/kg, vehicle 0.5% CMC, read-out: Cmax): 721 ng/mL; Cmax ([1]; female, PO, 100 mg/kg, vehicle 0.5% CMC, read-out: Cmax): 3560 ng/mL
8 | C#CCNC(=O)c1ccccc1Sc1ccc2c(/C=C/c3ccccn3)n[nH]c2c1 [Example 35(cc), 6-[2-(2-Propynylcarbamoyl)phenylsulfanyl]-3-E-[2-(pyridin-2-yl)ethenyl]-1H-indazole] | 31 | 2223 | – | 1718 | 1.4 | 0.9 | 6 | 5 | –
9 | O=C(Cc1cc(F)cc(F)c1)Nc1cccc(C(=O)c2ccc3c(/C=C/c4ccccn4)n[nH]c3c2)c1 [Example 41(f), 6-[3-(3,5-Difluorophenylacetamido)benzoyl]-3-E-[2-(pyridin-2-yl)ethenyl]-1H-indazole] | 59 | – | – | – | – | – | – | – | –
